The source of these data is patent publication US8148056B2, “Methods of identifying modulators of GPR81 receptors” (Janssen Pharmaceutica NV, priority 2006, dated 2012).

Experiment [1] concerns the target T1, GPR81 (Homo sapiens, UniProt Q9BXC0). Kind of experiment: GPR81 agonist ligand activity, GTPγS binding assay (species of receptor not given). The class given is biochemical. To be noted: for GPR81 agonist activity: yes/no; for stimulation of 35S-GTPγS binding in GPR81-expressing cells / cell membranes: concentration not given. The arrangement: expressed in transfected cells; host or cells: GPR81-expressing cells / membranes (CHO).
Target sequence in this assay (Q9BXC0 whole entry, species assumed): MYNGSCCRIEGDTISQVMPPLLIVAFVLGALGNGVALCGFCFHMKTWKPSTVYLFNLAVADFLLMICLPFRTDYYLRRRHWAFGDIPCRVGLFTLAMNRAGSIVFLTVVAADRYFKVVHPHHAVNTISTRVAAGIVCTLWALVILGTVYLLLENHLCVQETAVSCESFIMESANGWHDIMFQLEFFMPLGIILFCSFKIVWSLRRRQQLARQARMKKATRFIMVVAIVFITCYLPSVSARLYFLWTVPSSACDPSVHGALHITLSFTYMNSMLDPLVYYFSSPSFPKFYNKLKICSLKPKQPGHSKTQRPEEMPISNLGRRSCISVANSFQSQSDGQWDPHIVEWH

A further experiment concerns monkey GPR81. As to the kind of experiment: GTPγS binding assay, monkey GPR81. In kind it is biochemical. The following applies: FIG. 20. From the text:
The forward primer, 5′ ACTAGAGAATTCGCCACCATGTACAACGGGTCGTGCTGCCGCAT 3′ (SEQ ID NO:15), and the reverse primer, 5′ ATGATAGCGGCCGCTCAGTGCCACTCAACAGTGTGGGGATC 3′ (SEQ ID NO:16), were designed based on the identified monkey GPR81 coding sequence and were used to amplify the monkey GPR81 coding region using monkey genomic DNA as template.
In general terms: Binding of GTPγS marks nucleotide exchange on a G protein.

Experiment [2] concerns the target T1, GPR81. As to the kind of experiment: 35S-GTPγS binding assay, membranes of CHO cells expressing human GPR81. The arrangement: expressed in transfected cells; host or cells: CHO-K1 (transient, pCIneo), membranes. The class given is biochemical.
Target sequence in this assay (Q9BXC0 whole entry): as the sequence (Q9BXC0 whole entry, species assumed) above
The next experiment deals with bovine GPR81. As to the kind of experiment: GTPγS binding assay, bovine GPR81. The class given is biochemical. The following applies: FIG. 20. The text has this: TAA GTC ACC AAT CC 3′ (SEQ ID NO:12), were designed based on the identified bovine GPR81 coding sequence and were used to amplify the bovine GPR81 coding region using bovine genomic DNA as template.
For another experiment, the target named is T2, mouse GPR81S (Mus musculus, UniProt Q8C131).
T2 construct: expressed in transfected cells; host or cells: CHO-K1 (transient, pCIneo), membranes
T2 sequence (Q8C131 1-343): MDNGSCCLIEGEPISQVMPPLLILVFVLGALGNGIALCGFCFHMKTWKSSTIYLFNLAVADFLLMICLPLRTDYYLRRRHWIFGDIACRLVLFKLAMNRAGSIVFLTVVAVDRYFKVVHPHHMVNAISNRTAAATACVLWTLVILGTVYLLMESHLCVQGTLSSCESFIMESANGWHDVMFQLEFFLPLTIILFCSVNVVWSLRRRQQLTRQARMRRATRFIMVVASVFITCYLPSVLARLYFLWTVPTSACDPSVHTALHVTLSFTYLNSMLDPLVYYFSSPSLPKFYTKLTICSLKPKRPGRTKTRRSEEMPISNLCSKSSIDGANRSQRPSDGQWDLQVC
Kind of experiment: GTPγS binding assay, mouse GPR81S. The class given is biochemical. To be noted: FIG. 19. From the text: (§1) The longer polypeptide sequence was termed mouse GP[…]; the shorter polypeptide sequence was termed mouse GP[…].

The test system of another experiment is rat GPR81S. As to the kind of experiment: GTPγS binding assay, rat GPR81S. The following applies: FIG. 19. The class given is biochemical. The text has this:
(§2) The longer polypeptide sequence was termed rat GP[…]; the shorter polypeptide sequence was termed rat GP[…]. […] The forward primer, 5' [NT] ID NO:7), and the reverse primer, [NT] […] The forward primer, [NT] ID NO:9), and reverse primer, [NT]

For the next experiment, the system named is dog GPR81. As to the kind of experiment: GTPγS binding assay, dog GPR81. In kind it is biochemical. To be noted: FIG. 20.
Another experiment relates to porcine GPR81. Kind of experiment: GTPγS binding assay, porcine GPR81. To be noted: FIG. 20. The class given is biochemical.
For the next experiment, the target named is T3, mouse GPR81L (Mus musculus, UniProt Q8C131).
T3 construct: expressed in transfected cells; host or cells: CHO-K1 (transient, pCIneo), membranes
T3 sequence (Q8C131 with tags, fused parts or gaps): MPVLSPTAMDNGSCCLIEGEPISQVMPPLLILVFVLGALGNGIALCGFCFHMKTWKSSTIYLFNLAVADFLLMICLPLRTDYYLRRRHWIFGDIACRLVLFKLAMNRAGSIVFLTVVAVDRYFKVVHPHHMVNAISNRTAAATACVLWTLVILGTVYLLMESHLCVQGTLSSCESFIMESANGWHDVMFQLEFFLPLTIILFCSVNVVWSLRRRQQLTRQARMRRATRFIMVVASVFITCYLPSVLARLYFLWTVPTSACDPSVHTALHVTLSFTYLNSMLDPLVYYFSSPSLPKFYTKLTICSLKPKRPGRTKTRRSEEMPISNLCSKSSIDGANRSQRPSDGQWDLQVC
As to the kind of experiment: GTPγS binding assay, mouse GPR81L. The class given is biochemical. To be noted: FIG. 19.
Excerpt: as §1

A further experiment has as its system rat GPR81L. As to the kind of experiment: GTPγS binding assay, rat GPR81L. To be noted: FIG. 19. In kind it is biochemical.
Excerpt: as §2

Experiment [3] addresses T1, GPR81. To be noted: 5 μM forskolin. The text has this: A β-galactosidase (β-gal) assay system was also used to characterize the GPR81 activation in SK-N-MC/CRE-β-gal cells stably expressing human GPR81. GPCRs that couple with Gi proteins, upon activation by agonist, inhibit cAMP accumulation, and therefore inhibit forkolin-stimulated β-gal expression. A cell line stably expressing human GPR81 was established from an SK-N-MC/CRE-β-gal cell line, which harbors a β-galactosidase β-gal) gene under the control of a cAMP-responsive element (CRE). SK-N-MC/CRE-β-gal cells were transfected with the above-described human GPR81-pCIneo construct using LipofectAmine as the transfection reagent. Two days after transfection, the cells were split into new culture dishes at different densities and grown under selection of G418 for three weeks. Single isolated clones were isolated and tested for responsiveness to L-lactate stimulation. […] The β-gal activity was assayed as described (Liu et al., Mol. Pharmacol., Vol. 67, pp. 231-240 (2005)).
Target sequence in this assay (Q9BXC0 whole entry): as the sequence (Q9BXC0 whole entry, species assumed) above

Experiment [4] concerns the target T1, GPR81. The following applies: Tunaru et al., Nat. Med. 2003; cited from earlier work.
Target sequence in this assay (Q9BXC0 whole entry, species assumed): as the sequence (Q9BXC0 whole entry, species assumed) above
A short description of experiment [5]: cAMP inhibition-linked β-gal assay, control cells. In kind it is cell-based.
For experiment [6], the system named is HM74. Kind of experiment: cAMP inhibition-linked β-gal assay, HM74 expressing cells. The class given is cell-based.
Experiment [7] in a line: 35S-GTPγS binding assay, control membranes. The class given is biochemical, Chinese hamster. The following applies: negative control.
For another experiment, the target named is T4, HM74A (Homo sapiens, UniProt Q8TDS4).
T4 construct: expressed in transfected cells; host or cells: CHO cells, membranes
T4 sequence (Q8TDS4 whole entry): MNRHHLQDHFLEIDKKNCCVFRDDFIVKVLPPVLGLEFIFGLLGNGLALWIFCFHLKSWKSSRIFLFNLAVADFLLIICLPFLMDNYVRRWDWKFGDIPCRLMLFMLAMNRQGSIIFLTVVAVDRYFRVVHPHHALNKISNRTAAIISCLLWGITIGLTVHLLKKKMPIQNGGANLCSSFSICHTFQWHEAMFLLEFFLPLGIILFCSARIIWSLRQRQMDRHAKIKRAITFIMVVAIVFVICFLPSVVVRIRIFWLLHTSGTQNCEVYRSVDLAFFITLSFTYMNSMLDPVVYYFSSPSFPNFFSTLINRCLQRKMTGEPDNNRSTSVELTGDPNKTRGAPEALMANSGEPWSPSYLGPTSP
Kind of experiment: 35S-GTPγS binding assay, HM74A-expressing CHO membranes. In kind it is biochemical.

Experiment [8] addresses T5, HM74 (Homo sapiens, UniProt P49019).
T5 construct: expressed in transfected cells; host or cells: CHO cells, membranes
Kind of experiment: 35S-GTPγS binding assay, HM74-expressing CHO membranes. The class given is biochemical.

Values joined by “and” are separate entries in the source; they are usually repeats but may differ in a detail not shown here. Equal values may be shown once. “Also recorded” adds a separate entry of the source. Where a name gives a salt, the structure may show the parent alone. Read-outs that look alike come from different tables or passages of the source.

T5 sequence (P49019 whole entry): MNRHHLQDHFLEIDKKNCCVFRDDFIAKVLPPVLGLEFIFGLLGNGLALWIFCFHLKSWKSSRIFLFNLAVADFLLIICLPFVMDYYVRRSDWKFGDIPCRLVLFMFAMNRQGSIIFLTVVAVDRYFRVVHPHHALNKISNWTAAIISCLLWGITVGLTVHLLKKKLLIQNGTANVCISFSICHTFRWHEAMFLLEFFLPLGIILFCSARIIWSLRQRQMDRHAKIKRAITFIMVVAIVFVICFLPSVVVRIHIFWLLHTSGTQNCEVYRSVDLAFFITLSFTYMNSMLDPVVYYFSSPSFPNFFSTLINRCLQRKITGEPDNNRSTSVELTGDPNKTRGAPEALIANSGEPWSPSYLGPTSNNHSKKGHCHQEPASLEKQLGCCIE

In the case of `O=C(O)C(F)(F)Cl` [chlorodifluoroacetate (CDFA), chlorodifluoroacetate], the GPR81 agonist activity result at GPR81 [1] was “yes”; on GPR81 [1] (listed as chlorodifluoroacetate), “showed GPR81-agonist activity”.
In the case of `CC(Cl)C(=O)Cl` (centres unmarked) [2-chloropropinoyl chloride], the GPR81 agonist activity entry on GPR81 [1] is “showed GPR81-agonist activity and yes”.
For `CC(Cl)(Cl)C(=O)[O-].[Na+]` [2,2-dichloropropionic acid, sodium salt], the GPR81 agonist activity result on GPR81 [1] is given as “no”.
Turning to `O=CC(=O)O` [glyoxylate], the GPR81 agonist activity result at GPR81 [1] is “neither acetate, pyruvate, formiate, nor glyoxylate activated GPR81 and no”.
For `O=C(O)C(F)(F)F` [trifluoroacetate (TFA), trifluoroacetate], the values for the GPR81 agonist activity result at GPR81 [1] and at GPR81 [1] (listed as trifluoroacetate) were “yes” and “showed GPR81-agonist activity”, respectively.
Turning to `CC(O)CC(=O)O` (stereo not drawn) [β-hydroxybutyrate], in the experiment with monkey GPR81, the “activation of monkey GPR81” value is “did not activate”. The “activation of human GPR81 (GTPγS binding)” value on GPR81 [2] is listed as “did not activate”. Also, in the experiment with bovine GPR81, the “activation of bovine GPR81” value is on record as “did not activate”. In addition, the “activation of mouse GPR81S” value at mouse GPR81S is on record as “did not activate”. For the same compound, in the experiment with rat GPR81S, the “activation of rat GPR81S” value is listed as “did not activate”. In the experiment on dog GPR81, the “activation of dog GPR81” value is “did not activate”. In addition, the “activation of porcine GPR81” value in the experiment on porcine GPR81 is “did not activate”. Besides, the “activation of mouse GPR81L” value on mouse GPR81L is “did not activate”. The “activation of rat GPR81L” value in the experiment with rat GPR81L is given as “did not activate”. In addition, the GPR81 agonist activity result at GPR81 [1] is listed as “no”.
As for `O=C(O)c1cccnc1` [nicotinic acid], on GPR81 [3], the “inhibition of forskolin-induced β-gal expression in GPR81-expressing cells” value is “failed to inhibit; also recorded: not in cells expressing GPR81”. The “activation of GPR81” value on GPR81 [4] was “does not activate”. Moreover, the “inhibition of forskolin-induced β-gal expression in control cells not expressing a GPCR” value in experiment [5] was “failed to inhibit”. Moreover, the “inhibition of forskolin-induced β-gal expression in HM74 expressing cells” value in the experiment with HM74 [6] is on record as “inhibited forskolin-induced β-gal expression”.
Consider `NCCCC(=O)O` [γ-aminobutyric acid (GABA), γ-aminobutyric acid], for which, on GPR81 [1], the “stimulation of 35S-GTPγS binding in GPR81-expressing cells / cell membranes” value is listed as “did not stimulate” and the GPR81 agonist activity entry was “no”. At GPR81 [1] (listed as gamma-aminobutyric acid (GABA)), the GPR81 agonist activity result is recorded as “did not activate it”.
With `O=C(O)C(F)F` [difluoroacetate], the GPR81 agonist activity result at GPR81 [1] is on record as “showed GPR81-agonist activity”.
Regarding `C[C@H](O)C(=O)O` [L-lactate], the EC50 (as a rule, the concentration needed to bring the measured effect to its halfway point) at GPR81 [2] (CHO membranes, read-out: EC50, activation of human GPR81 (35S-GTPγS binding)) is ~5 mM and 5 mM; at GPR81 [3] (read-out: EC50, inhibition of forskolin-induced β-gal expression in GPR81-expressing cells) it was approximately 3 mM. Also, the “receptor activation of GPR81” value on GPR81 [2] (at 1 mM concentration) was “capable of stimulating detectable receptor activation”. Also, the “inhibition of forskolin-induced β-gal expression in GPR81-expressing cells” value against GPR81 [3] was “inhibits forskolin-induced β-galactosidase expression”. Further, the “35S-GTPγS binding stimulation in control cells/membranes not expressing GPR81 or any GPCR” value in experiment [7] is “did not activate”. Further, the “inhibition of forskolin-induced β-gal expression in control cells not expressing a GPCR” value in [5] was “did not inhibit”; in [5] (listed as lactate), “not in cells not expressing GPR81”. Besides, on HM74A, the “activation of HM74A-expressing membranes (35S-GTPγS binding)” value is “did not activate”. In addition, the “inhibition of forskolin-induced β-gal expression in HM74 expressing cells” value with HM74 [6] is given as “did not inhibit”. The “activation of HM74-expressing membranes (35S-GTPγS binding)” value at HM74 [8] is listed as “did not activate”.
Turning to `O=C(O)CCCO` [γ-hydroxybutyric acid (GHB), γ-hydroxybutyric acid], in [7], the “35S-GTPγS binding stimulation in control cells/membranes not expressing GPR81 or any GPCR” value was “not in the control cells; also recorded: not in cells not expressing GPR81”. Moreover, at GPR81 [1] (at 1 mM and 5 mM), the “stimulation of 35S-GTPγS binding in GPR81-expressing cells” value is recorded as “significantly stimulated”. At GPR81 [1], the “stimulation of 35S-GTPγS binding in GPR81-expressing cells / cell membranes” value is on record as “stimulates” and the GPR81 agonist activity result is reported as “yes”. Further, the GPR81 agonist activity result on GPR81 [1] (listed as GHB) is on record as “activated GPR81”.
`CC(C)(O)C(=O)[O-].[Na+]` [sodium hydroxyisobutyrate]: the GPR81 agonist activity entry at GPR81 [1] is on record as “yes”; on GPR81 [1] (listed as hydroxy-iso-butyrate) it was “demonstrated significant GPR81 agonist activity”.
`CC(Cl)C(=O)[O-].[Na+]` (centres unmarked) [2-chloropropionic acid, sodium salt]: the GPR81 agonist activity entry is “showed GPR81-agonist activity” at GPR81 [1] (listed as 2-chloropropinoate, sodium salt) and “yes” at GPR81 [1] (sodium salt).
Take `CC(=O)O` [acetate]: the GPR81 agonist activity entry on GPR81 [1] was “neither acetate, pyruvate, formiate, nor glyoxylate activated GPR81 and no”.
Regarding `O=C([O-])CO.[Na+]` [glycolic acid, sodium salt], the GPR81 agonist activity result at GPR81 [1] (listed as glycolate, sodium salt) is “demonstrated significant GPR81 agonist activity”; on GPR81 [1] (sodium salt), “yes”.
As to `C[C@@H](O)C(=O)O` [D-lactate], at GPR81 [1], the “efficacy as GPR81 agonist (comparison)” value is given as “less efficacious”; the GPR81 agonist activity result was “demonstrated significant GPR81 agonist activity and yes”.
On to `O=CO` [formiate], for which, on GPR81 [1], the GPR81 agonist activity entry was “neither acetate, pyruvate, formiate, nor glyoxylate activated GPR81 and no”.
Regarding `N[C@@H](CCO)C(=O)O` [L-homoserine], the GPR81 agonist activity entry at GPR81 [1] is “none of glucose, L-homoserine, or any L-amino acids tested activated GPR81 and no”.
In the case of `O=C(O)C(Br)(Br)Br` [tribromoacetate (TEA), tribromoacetate], at GPR81 [1], the GPR81 agonist activity entry is recorded as “no”.
As to `CCC(O)C(=O)O` (stereo not drawn) [α-hydroxybutyrate], the GPR81 agonist activity result on GPR81 [1] was “yes”.
